Where two headings read alike, the source gives them in different places.
What was measured:
TTXs sodium channels = test: TTXs-sodium channel influx assay (fluorescence, ND7/23 cell line); assay type: cell-based, rat; conditions: ND7/23 cells, veratridine 100 μM; read-out: Na+ influx IC50
Description: ND7/23 rat dorsal root ganglion-derived cell line endogenously expresses a mixed population of TTXs sodium channels. These cells lack of TTXr sodium channels as shown by the absence of their respective transcripts.
ND7/23 cells were grown in DMEM supplemented with 10% FBS and 1 mM sodium piruvate. The cells were seeded at 50,000 cells/well on 96 poly-L-lysine-coated plates and further incubated for 18-24 h before use.
The Membrane Potential Kit Assay (Molecular Devices), based on a negatively charged fluorescent dye able to monitor changes in membrane potential caused by the sodium influx due to the channel opening, was used for the assay.
Cells were incubated with the dye loading for 30 minutes at 25° C. Then, 100 nM of the toxin Anemonia sulcata (used as enhancer of the channel opener response) alone or in the presence of TTX (as reference standard) or test compound were added for further 15 minutes.
The fluorescence (excitation:530 nm, emission: 565 nm wavelength) was measured before and after (40-45 s) the automated injection of the sodium channel opener veratridine (100 μM) using a Victor plate reader (Perkin Elmer).
The inhibition curves were calculated from 5 concentrations, each in triplicate, and the IC50 determined using linear regression analysis.

[1] = molecular target: Na+ currents in rat cortical neurons; test: Patch clamp evaluation of Na+ currents blockade in rat cortical neurons; assay type: cell-based; conditions: for Ki: calculated from Kr and Kdep, read-out: Ki (apparent affinity for the inactivated state)
Description: Cortical neurons were prepared from embryonic Wistar rats (E17-E19). A female rat at date 17-19 of pregnancy was anesthetized and sacrificed. The fetuses (n=4-5) were dissected and placed in ice-cold Hank's solution (Hank's solution (Life tech.14170-088)+glucose 30%+Pen-Strep 100× (Life Tech. 15140-122) 100U-100 μg/ml and Hepes-NaOH 5 mM). The uterus and placenta were removed, the fetuses were decapitated and the heads were placed in ice-cold Hank's solution. Cells were counted and diluted in Neurobasal medium to a concentration of 400000 cells per poly-D-lysine 5 μg/ml treated Petri dish. Cortical neurons were used from day 6th till day 11th after plating, and once a week Neurobasal medium was changed. Experiments on cortical neurons were carried out using standard whole cell patch clamp methods (Hamill et al., Pfugers Arch., 1981 August, 391(12), 85-100). Membrane currents were recorded and filtered at 5 kHz with an Axon Axopatch 200B amplifier and data digitized with an Axon Digidata 1322A (Axon Instruments, CA, USA). Protocol playing and data acquisition were controlled online with Axon pClamp8 software. Measuring and reference electrodes were AgCl-Ag electrodes. A Sutter Instrument P-87 Puller (CA, USA) was used for pulling patch clamp pipettes with a resistance of 2-3 MΩ from Harward borosilicate glass tubes. Cells were continuously superfused with extracellular solutions, using a solution changer Biologic RSC-200. To test the effect of compounds on sodium currents in cortical neurons, cells were clamped at -90 mV, then a two step protocol was used to determine the voltage dependence of the block. […] Tonic block of resting and depolarized currents at a given drug concentration, was calculated as the difference between the peak Na^+ current in the control external bath solution and peak currents with the test substance divided by control peak. Drug concentration-inhibition curves were obtained by plotting tonic blocks in the resting and depolarized condition, versus drug concentrations. Dose-response curves were fitted to the tonic block data, according to the logistic equation: […] Control bath solution contained (mM): […] Internal pipette solution consisted of (mM): […] Compounds were dissolved as stock solutions (20 mM) in DMSO. They were diluted to the final concentrations in the external solution.

mice [2] = test: Formalin test; assay type: in vivo; conditions: Mus musculus, po
Description: According to a modified protocol from Rosland et al. (Rosland J. H., Tjolsen A., Maehle B., Hole K. Pain (1990) 42: 235-242), mice were injected subcutaneously (s.c.) with 20 μl of 2.7% solution of formalin into the plantar surface of left hindpaw and placed immediately into clear PVC observation chambers (23×12×13 cm). Pain behaviour was quantified by counting the cumulative licking time (s) of the injected paw. Measurements were taken during the early phase (0-5 min) and late phase (20-40 min) after formalin injection (Tjolsen A., Berge O. G., Hunskaar S., Rosland J. H., Hole K. Pain (1992) 51: 5-17).
The test compound was administered p.o. or s.c. 5-45 minutes before formalin injection in a volume of 10 ml/kg body weight to groups of 10 mice per dose. Control group was treated with vehicle.

mice [3] = test: Maximal electroshock test (MES) in mice; assay type: in vivo; conditions: for ED50: Mus musculus
Excerpt: The maximal electroshock test (MES) is used commonly in the screening of anti-epileptic drugs in rodent models.
Animals and Apparatus: Male CD1 mice weighing 25 g were used. The procedure described by White et al. (White H. S., Woodhead J. H., Franklin M. R., Swinyard E. A., and Wolf H. H. Antiepileptic Drugs (1995) 4th ed: 99-110, Raven Press, Ltd., New York) was followed. An Ugo Basile electroconvulsive generator (Model ECT UNIT 7801) was used to deliver an electrical stimulus sufficient to produce a hindlimb tonic extensor response in at least 97% of control animals. The stimulus was delivered intra-aurally through clip electrodes in mice (0.7 s of a 40 mA shock, with a pulse train of 80 Hz having a pulse duration of 0.4 ms). The acute effect of compounds administered intraperitoneally (i.p.), subcutaneously (s.c.), intravenously (i.v.) or orally (p.o.) 5-120 minutes before MES induction were examined and compared with a vehicle control group. Ten mice were studied per group. Complete suppression of the hindlimb tonic extensor component of seizures was taken as evidence of anticonvulsant activity.
The compounds of the invention were administered p.o. or i.v., at the doses of 0.1-100 mg/kg.

[4] = preconditioning potential -110 mV, read-out: IC50 resting (Kr)
[5] = preconditioning potential ~-50 mV, read-out: IC50 depolarized

Row | Compound | IC50 (TTXs sodium channels) [µM] | Ki [1] [µM] | IC50 [1, 4] [µM] | IC50 [1, 5] [µM] | IC50 ([1]; resting condition, figure in parentheses after >100, read-out: IC50 resting (Kr), value in parentheses) [µM] | ED50 (mice [2]) [mg/kg] | ED50 (mice [3]; iv, read-out: MES ED50 mg/kg i.v.) [mg/kg] | ED50 (mice [3]; iv, mice, MES, i.v., read-out: MES ED50 mg/kg i.v.) [mg/kg] | ED50 (mice [3]; po, mice, MES, p.o., read-out: ED50 (mg/kg p.o.)) [mg/kg] | % protection 10 mg/kg p.o. (mice [3]; mice, MES, 10 mg/kg p.o.) [%]
1 | C[C@H](NCc1ccc(OCc2ccccc2F)cc1)C(N)=O [ralfinamide, (S)-(+)-2-[4-(2-fluorobenzyloxy)-benzylamino]-propanamide, reference compound] | 9.5 | 4.7 | > 100 | 9 | 213 | 29.3 | 2.7 | – | – | –
2 | CCCCOc1cccc(CCNCC(=O)N(C)C)c1.Cl [2-[2-(3-Butoxyphenyl)-ethylamino]-N,N-dimethylacetamide hydrochloride] | 1.5 | 0.4 | 25 | 0.8 | – | 14.9 | – | 0.2 | 4.3 | 100

— patent US9051240B2, “Substituted 2-[2-(phenyl) ethylamino] alkaneamide derivatives and their use as sodium and/or calcium channel modulators” (Newron Pharmaceuticals S.P.A., priority 2007, dated 2015)
